Test results: patent US6780995B2, “Activated iododerivatives for the treatment of cancer and aids” (Isotechnika Inc., priority 1997, dated 2004)
Read-outs that look alike come from different tables or passages of the source.

Key:
P388 cells = test: IC50 assay (XTT), inhibition of cell proliferation and growth, P388; type: cell-based; details: P388 murine leukemia cell line, XTT dye conversion, read-out: IC50 Concentrations, P388
Procedure: (§1) Cell culture: The human cell lines were propagated under sterile conditions in RPMI 1640 (CellGrow) with 10% fetal bovine serum (Hyclone), 2 mM L-glutamine, and sodium bicarbonate (complete medium) and incubated at 37° C. in HEPA-filtered Sterilcult CO2 tissue culture incubators (Forma) with 5% CO^2 and 95% humidity (Table 1). The murine leukemia cell lines were propagated in Dulbecco's MEM media with 10% equine serum (Hyclone), 2 mM L-glutamine, and sodium bicarbonate (complete medium) and incubated as described. The cells were subcultured twice weekly and used in experiments. The culture was screened for mycoplasma contamination using GeneProbe™ (Fisher) and positive cultures were cured of contaminants over three passages using constant treatment with BM-Cyclin™ antibiotic combination (Boehringer Mannheim). Only cultures confirmed as mycoplasma free were used in testing compounds for anticellular activity.
(§2) The test compounds were stored at 4° C. under light protected conditions. The test compounds were weighed and dissolved in DMSO. The dissolved compounds were then serially diluted in warm medium (RPMI 1640 or Dulbecco's MEM) under constant mixing to minimize precipitation. The positive control drug doxorubicin was diluted in water followed by dilution in media to achieve a final concentration of 200 nM.
(§3) For all experiments, the cells were harvested and centrifuged to remove the media, and suspended in fresh completed medium. Samples were taken to determine cell density. The cell count was determined with a Coulter Model Z1 cell counter and viability was measured with propidium iodide staining followed by analysis on a Coulter EPPICS Elite Flow cytometer. The cell samples sere adjusted with complete medium to a density of 5×10^4/mL for adherent cell lines and 1×10^5/mL for suspension lines. Tissue culture cluster plates (96 well, cat. No. 3595 Costar for adherent human lines and cat No. 25850 Corning for murine leukemias) were seeded with 100 μL cells and incubated as described. Replicate groups of plates were set up for each line to accommodate the exposure options for single agents and combinations. For each dilution 8 wells (100 μL samples of cells) were treated with 100 μL of dosing solution one day after plating. Each cluster plate contained a cell control (8 wells, mock-treated with complete medium), a medium control (3 wells with medium used to subtract out signal generated by media conditions), and an air blank (1 well, for calibrating the plate reader).
(§4) Anticellular effects of the murine leukemia cell lines were assessed with the XTT dye conversion assay which is more suited to suspension cultures. On the day of analysis XTT[2,3-bis(2-methoxy-4-nitro-5-sulfophenyl)-5-[(phenylamino)carbenyl]-2H-tetrazolium hydroxide, inner salt, sodium salt (Sigma)] was weighed out and dissolved at 1 mg/mL in media. PMS (phenazine methosulfate) was prepared at 5 mM in PBS (phosphate buffered saline) and stored as a stock solution 4° C. The PMS was mixed with dissolved XTT to a final concentration of 0.025 mM. Sample wells were treated with 50 μL of the XTT solution and the plates were incubated for four hours at 37° C. to allow for conversion into the liquid soluble formazan product. After the incubation period the reaction was stopped by adding 10 μL of 10% SDS solution per well and the wells contents of each plate were mixed by agitation. The absorbancy of formazan in each monolayer was measured at 450 nm (620 nm reference beam) on a Denley Anthos 2001 microplate reader. The data were transferred via the ARCOM software capture program into Lotus 1-2-3 for processing.
(§5) Using the procedures described above, concentrations of the Example compounds necessary to inhibit cell proliferation and growth by 50% (1C50 values) were determined in the test cell lines.

MCF7 cells = test: IC50 assay, inhibition of cell proliferation and growth, MCF7; type: cell-based, human
Procedure: as §1, §2, §3
(§6) Anticellular effects of the compounds for the adherent cell lines were assessed with neutral red dye. On the day of analysis, the media was removed from sample cell monolayers and replaced with 0.1 mL of neutral red solution (0.5% neutral red, HBSS:RPMI 1640 (1:1), 0.05 M HEPES, pH 7.2). After incubation of the samples at 37° C. for 1 hour the excess dye was removed with blotting and the monolayers were washed twice with 0.85% NaCl solution (0.1 mL per wash). The cell associated dye was extracted by adding 0.2 mL of a 0.1 M NaH2PO4:ethanol (1:1) solution/well followed by incubation for 1 hour at 35° C. The absorbency of neutral red in each monolayer was measured at 550 nm (620 nm reference beam) on a Denley Anthos 2001 microplate reader. The data were transferred via the ARCOM software capture program in Lotus 1-2-3 for processing.
(§7) In assays where technical difficulties due to crystalization of the neutral red occurred the crystal violet staining procedure was employed to measure the amount of cells were left on the plate. Crystal violet staining solution [0.5% crystal violet (w/v), 50% methanol (v/v), 45% saline (v/v), and 5% formalin (v/v)] were prepared on the day of staining. After the media was removed from the sample wells, two drops of crystal violet stain were added to each well and the samples were incubated at ambient temperature for 10 minutes. […]

B16 cells = test: IC50 assay, inhibition of cell proliferation and growth, B16; type: cell-based; details: B16 murine melanoma cell line, neutral red or crystal violet, read-out: IC50 Concentrations, B16
Procedure: as §1, §2, §3, §6, §7

L1210 cells = test: IC50 assay (XTT), inhibition of cell proliferation and growth, L1210; type: cell-based; details: L1210 murine leukemia cell line, XTT dye conversion, read-out: IC50 Concentrations, L1210
Procedure: as §1, §2, §3, §4, §5

SK-OV-3 cells = test: IC50 assay, inhibition of cell proliferation and growth, SK-OV-3; type: cell-based, human
Procedure: as §1, §2, §3, §6, §7

COLO 205 cells = test: IC50 assay, inhibition of cell proliferation and growth, COLO 205; type: cell-based, human
Procedure: as §1, §2, §3, §6, §7

SK-MEL-5 cells = test: IC50 assay, inhibition of cell proliferation and growth, SK-MEL-5; type: cell-based, human
Procedure: as §1, §2, §3, §6, §7

M14 cells = test: IC50 assay, inhibition of cell proliferation and growth, M14; type: cell-based, human
Procedure: as §1, §2, §3, §6, §7

A549 cells = test: IC50 assay, inhibition of cell proliferation and growth, A549; type: cell-based, human
Procedure: as §1, §2, §3, §6, §7

RPMI 8226 cells = test: IC50 assay, inhibition of cell proliferation and growth, RPMI 8226; type: cell-based; details: Homo sapiens
Procedure: as §1, §2, §3, §5

[1] = Homo sapiens, MCF7 breast adenocarcinoma cell line, neutral red or crystal violet, read-out: IC50 Concentrations, MCF 7
[2] = Homo sapiens, SK-OV-3 ovarian adenocarcinoma cell line, neutral red or crystal violet, read-out: IC50 Concentrations, SK-OV-3
[3] = Homo sapiens, COLO 205 colon adenocarcinoma cell line, neutral red or crystal violet, read-out: IC50 Concentrations, COLO 205
[4] = Homo sapiens, SK-MEL-5 melanoma cell line, neutral red or crystal violet, read-out: IC50 Concentrations, SK MEL-5
[5] = Homo sapiens, M14 melanoma cell line, neutral red or crystal violet, read-out: IC50 Concentrations, M14
[6] = Homo sapiens, A549 bronchogenic cell line, neutral red or crystal violet, read-out: IC50 Concentrations, A 549
[7] = RPMI 8226 myeloma cell line, read-out: IC50 Concentrations, RPM 18226
[8] = SK-OV-3 ovarian adenocarcinoma cell line, neutral red or crystal violet, read-out: IC50 Concentrations, SK-OV-3
[9] = COLO 205 colon adenocarcinoma cell line, neutral red or crystal violet, read-out: IC50 Concentrations, COLO 205
[10] = SK-MEL-5 melanoma cell line, neutral red or crystal violet, read-out: IC50 Concentrations, SK MEL-5
[11] = M14 melanoma cell line, neutral red or crystal violet, read-out: IC50 Concentrations, M14
[12] = A549 bronchogenic cell line, neutral red or crystal violet, read-out: IC50 Concentrations, A 549

Compound	IC50 (P388 cells; Mus musculus)	IC50 (MCF7 cells; [1])	IC50 (B16 cells; Mus musculus)	IC50 (L1210 cells; Mus musculus)	IC50 (SK-OV-3 cells; [2])	IC50 (COLO 205 cells; [3])	IC50 (SK-MEL-5 cells; [4])	IC50 (M14 cells; [5])	melting point	IC50 (A549 cells; [6])	IC50 (RPMI 8226 cells; [7])	further results
CCOC(=O)c1sc(NC(=O)c2cc([N+](=O)[O-])ccc2I)nc1C [Ref. No. 16]	11.2 µM	34.3 µM	7.93 µM	41.1 µM	41.2 µM	31.2 µM	41.7 µM	37.3 µM	211 to 212 °C	30.1 µM	10.6 µM	
O=C(Nc1nnc(C(F)(F)F)s1)c1cc([N+](=O)[O-])ccc1I [Ref. No. 18]	12.8 µM	24 µM	20.8 µM	28.4 µM	73 µM	41.3 µM	28.8 µM	27.3 µM	219 to 221 °C	15.7 µM	16.7 µM	
Cc1ccc(-c2csc(NC(=O)c3cc([N+](=O)[O-])ccc3I)n2)cc1 [Ref. No. 19, 2(2′-Iodo-5′-Nitro-Benzamido)-4-tolyl-Thiazole]	2.43 µM	35.5 µM	5.15 µM	13.5 µM	33.2 µM	18.2 µM	51.3 µM	14.4 µM	244 to 248 °C	163 µM	11.8 µM	
Cc1csc(NC(=O)c2cc([N+](=O)[O-])ccc2I)n1 [Ref. No. 21, 2-(2′-Iodo-5′-Nitro-Benzamido)-4-Methyl-Thiazole]	3.44 µM	12.5 µM	5.13 µM	12.8 µM	15.7 µM	5.59 µM	15 µM	13.2 µM		43.7 µM	3.33 µM	
Cc1cnc(NC(=O)c2cc([N+](=O)[O-])ccc2I)s1 [Ref. No. 22, 2(2′-Iodo-5′-Nitro-Benzamido)-5-Methyl-Thiazole]	3.64 µM	14.8 µM	6.2 µM	12.8 µM	16.1 µM	13.5 µM	15.3 µM	14.5 µM		45.2 µM	12.7 µM	
O=C(NC1=NCCS1)c1cc([N+](=O)[O-])ccc1I [Ref. No. 23, 2-(2′-Iodo-5′-Nitro-Benzamido)-2-Thiazoline]	353 µM	162 µM	129 µM	> 500 µM	> 500 µM	81.9 µM	125 µM	150 µM	176 to 179 °C	> 500 µM	237 µM	
O=C(NCCCCCCNC(=O)c1cc([N+](=O)[O-])ccc1I)c1cc([N+](=O)[O-])ccc1I [Ref. No. 24, 1,6-Di-(2′-Iodo-5′-Nitro-Benzamido)-Hexane]												IC50 (MCF7 cells; Homo sapiens, MCF7, read-out: IC50 Concentrations, MCF 7): > 500 µM; IC50 (SK-OV-3 cells; Homo sapiens, SK-OV-3, read-out: IC50 Concentrations, SK-OV-3): > 500 µM; IC50 (COLO 205 cells; Homo sapiens, COLO 205, read-out: IC50 Concentrations, COLO 205): > 500 µM; IC50 (SK-MEL-5 cells; Homo sapiens, SK-MEL-5, read-out: IC50 Concentrations, SK MEL-5): > 500 µM; IC50 (M14 cells; Homo sapiens, M14, read-out: IC50 Concentrations, M14): > 500 µM; IC50 (A549 cells; Homo sapiens, A549, read-out: IC50 Concentrations, A 549): > 500 µM; IC50 (RPMI 8226 cells; RPMI-8226, read-out: IC50 Concentrations, RPM 18226): > 500 µM
N-(3′-Pyridyl)-2-Iodo-5-Nitrophenyl Hydrazide [Ref. No. 11]												IC50 (P388 cells): > 55.6 µM; IC50 (B16 cells): 129 µM; IC50 (L1210 cells): ≥ 55.6 µM; IC50 (SK-OV-3 cells; [8]): 381 µM; IC50 (COLO 205 cells; [9]): 111 µM; IC50 (SK-MEL-5 cells; [10]): 413 µM; IC50 (M14 cells; [11]): 467 µM; IC50 (A549 cells; [12]): 387 µM
N-(4′-Pyridyl)-2-Iodo-5-Nitrophenyl Hydrazide [Ref. No. 10]												IC50 (P388 cells): > 18.5 µM; IC50 (MCF7 cells; MCF7 breast adenocarcinoma cell line, neutral red or crystal violet, read-out: IC50 Concentrations, MCF 7): > 500 µM; IC50 (B16 cells): 301 µM; IC50 (L1210 cells): > 18.5 µM; IC50 (SK-OV-3 cells; [8]): 361 µM; IC50 (COLO 205 cells; [9]): 441 µM; IC50 (SK-MEL-5 cells; [10]): > 500 µM; IC50 (M14 cells; [11]): > 500 µM; IC50 (A549 cells; [12]): > 500 µM
